Reference: US11174245B2, “Benzimidazole compounds and derivatives as EGFR inhibitors” (Boehringer Ingelheim International GmbH, priority 2018, dated 2021)

Columns and labels:
[1] = molecular target: EGFR (mutated) 695-1022, T790M, C797S, L858R (Homo sapiens (Human), UniProt P00533, C797S/L858R/T790M); assay: Biochemical EGFR inhibition assay (TR-FRET, poly-GT substrate), EGFR T790M C797S L858R; conditions: read-out: LR_TM_CS (5 μM ATP) IC50; 5 μM ATP
Procedure: (§1) Biochemical EGFR Inhibition Assays
(§2) Initially, the inhibitory effect of compounds according to the invention is measured in biochemical assays which measure the phosphorylation activity of EGFR enzyme forms on poly-GT substrate in the presence of different concentrations of ATP (5 μM and 100 μM final assay concentration).
(§3) The following enzyme forms of EGFR are representative examples that can be used in these assays at the given concentrations:
(§4) For the chosen highest assay concentration of 100 μM, 150 nL of compound solution is transferred from a 10 mM DMSO compound stock solution. A series of eleven fivefold dilutions per compound is transferred to the assay plate, compound dilutions are tested in duplicates. DMSO is added as backfill to a total volume of 150 nL. The assay runs on a fully automated robotic system.
(§5) These biochemical EGFR enzyme form compound dose-response assays quantify the kinase activity via phosphorylation of a tagged poly-GT substrate. The results of the assay are provided as IC50 values.

EGFR wt = EGFR wt (Homo sapiens (Human), UniProt P00533); assay: Biochemical EGFR inhibition assay (TR-FRET, poly-GT substrate), EGFR wt; conditions: read-out: wt (5 μM ATP) IC50; 5 μM ATP
Procedure: as §1, §2, §3, §4, §5

[2] = molecular target: EGFR del19 T790M C797S protein in Ba/F3 cells (Homo sapiens, UniProt P00533, C797S/DEL746-750/T790M); assay: pEGFR assay (AlphaScreen Surefire, EGFR Tyr1068 phosphorylation); type: cell-based
Procedure: Transduced cells were selected using puromycin. Following selection, IL-3 was withdrawn and IL-3 independent cells cultured. p-EGFR Tyr1068 was determined using the AlphaScreen Surefire pEGF Receptor (Tyr1068) Assay (PerkinElmer, TGRERS). […] Subsequently, 60.000 cells/well in 60 μL were added. Cells were incubated with compound for 4 h at 37° C. […] The mixture was incubated at room temperature with shaking (700 rpm) for 20 min. After centrifugation, 4 μL of the lysate were transferred to Proxiplates. […] Plates were shaken for 1 min (1400 rpm) and incubated for 2 h at room temperature in the dark.
The results of the assay are provided as IC50 values (see table 12).

Chain of EGFR wt (P00533 25-1210): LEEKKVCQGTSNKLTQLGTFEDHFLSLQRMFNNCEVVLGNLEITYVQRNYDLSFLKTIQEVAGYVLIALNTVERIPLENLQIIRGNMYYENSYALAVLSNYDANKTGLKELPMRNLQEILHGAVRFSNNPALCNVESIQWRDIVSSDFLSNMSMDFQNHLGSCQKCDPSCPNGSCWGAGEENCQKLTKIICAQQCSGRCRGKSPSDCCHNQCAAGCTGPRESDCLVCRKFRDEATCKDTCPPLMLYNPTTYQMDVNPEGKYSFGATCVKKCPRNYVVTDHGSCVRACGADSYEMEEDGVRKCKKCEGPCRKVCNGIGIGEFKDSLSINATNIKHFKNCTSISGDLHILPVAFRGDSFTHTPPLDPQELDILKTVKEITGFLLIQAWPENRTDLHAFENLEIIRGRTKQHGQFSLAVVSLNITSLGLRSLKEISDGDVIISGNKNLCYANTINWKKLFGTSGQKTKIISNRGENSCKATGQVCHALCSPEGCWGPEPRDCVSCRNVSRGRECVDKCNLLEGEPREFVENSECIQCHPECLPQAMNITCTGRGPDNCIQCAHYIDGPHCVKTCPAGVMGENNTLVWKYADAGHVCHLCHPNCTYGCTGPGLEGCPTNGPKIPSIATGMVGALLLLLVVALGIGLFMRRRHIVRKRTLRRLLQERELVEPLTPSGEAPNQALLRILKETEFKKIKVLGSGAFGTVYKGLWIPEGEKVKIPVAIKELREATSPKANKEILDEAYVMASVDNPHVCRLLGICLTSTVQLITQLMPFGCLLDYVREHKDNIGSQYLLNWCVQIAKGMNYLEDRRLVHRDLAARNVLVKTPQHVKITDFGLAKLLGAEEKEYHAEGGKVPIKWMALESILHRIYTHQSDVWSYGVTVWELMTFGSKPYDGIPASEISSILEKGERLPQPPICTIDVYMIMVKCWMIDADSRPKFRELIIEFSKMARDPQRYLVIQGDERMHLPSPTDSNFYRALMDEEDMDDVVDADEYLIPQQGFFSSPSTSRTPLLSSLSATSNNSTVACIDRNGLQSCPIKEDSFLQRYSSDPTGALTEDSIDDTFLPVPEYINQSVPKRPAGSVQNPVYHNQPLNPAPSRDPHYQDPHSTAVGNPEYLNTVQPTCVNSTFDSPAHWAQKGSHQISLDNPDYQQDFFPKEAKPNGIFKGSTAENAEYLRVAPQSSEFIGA
Chain of EGFR (mutated) 695-1022, T790M, C797S, L858R (P00533 695-1022 T790M/C797S/L858R): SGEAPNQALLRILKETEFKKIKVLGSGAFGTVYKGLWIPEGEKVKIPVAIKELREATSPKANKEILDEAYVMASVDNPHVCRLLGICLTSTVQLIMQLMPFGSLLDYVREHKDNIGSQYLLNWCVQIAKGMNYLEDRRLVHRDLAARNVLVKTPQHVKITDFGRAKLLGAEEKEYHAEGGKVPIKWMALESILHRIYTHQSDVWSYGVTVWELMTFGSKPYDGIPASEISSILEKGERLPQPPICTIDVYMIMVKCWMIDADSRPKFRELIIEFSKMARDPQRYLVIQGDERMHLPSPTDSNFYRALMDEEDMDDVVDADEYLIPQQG
Chain of EGFR del19 T790M C797S protein in Ba/F3 cells (P00533 with tags, fused parts or gaps C797S/DEL746-750/T790M limits assumed): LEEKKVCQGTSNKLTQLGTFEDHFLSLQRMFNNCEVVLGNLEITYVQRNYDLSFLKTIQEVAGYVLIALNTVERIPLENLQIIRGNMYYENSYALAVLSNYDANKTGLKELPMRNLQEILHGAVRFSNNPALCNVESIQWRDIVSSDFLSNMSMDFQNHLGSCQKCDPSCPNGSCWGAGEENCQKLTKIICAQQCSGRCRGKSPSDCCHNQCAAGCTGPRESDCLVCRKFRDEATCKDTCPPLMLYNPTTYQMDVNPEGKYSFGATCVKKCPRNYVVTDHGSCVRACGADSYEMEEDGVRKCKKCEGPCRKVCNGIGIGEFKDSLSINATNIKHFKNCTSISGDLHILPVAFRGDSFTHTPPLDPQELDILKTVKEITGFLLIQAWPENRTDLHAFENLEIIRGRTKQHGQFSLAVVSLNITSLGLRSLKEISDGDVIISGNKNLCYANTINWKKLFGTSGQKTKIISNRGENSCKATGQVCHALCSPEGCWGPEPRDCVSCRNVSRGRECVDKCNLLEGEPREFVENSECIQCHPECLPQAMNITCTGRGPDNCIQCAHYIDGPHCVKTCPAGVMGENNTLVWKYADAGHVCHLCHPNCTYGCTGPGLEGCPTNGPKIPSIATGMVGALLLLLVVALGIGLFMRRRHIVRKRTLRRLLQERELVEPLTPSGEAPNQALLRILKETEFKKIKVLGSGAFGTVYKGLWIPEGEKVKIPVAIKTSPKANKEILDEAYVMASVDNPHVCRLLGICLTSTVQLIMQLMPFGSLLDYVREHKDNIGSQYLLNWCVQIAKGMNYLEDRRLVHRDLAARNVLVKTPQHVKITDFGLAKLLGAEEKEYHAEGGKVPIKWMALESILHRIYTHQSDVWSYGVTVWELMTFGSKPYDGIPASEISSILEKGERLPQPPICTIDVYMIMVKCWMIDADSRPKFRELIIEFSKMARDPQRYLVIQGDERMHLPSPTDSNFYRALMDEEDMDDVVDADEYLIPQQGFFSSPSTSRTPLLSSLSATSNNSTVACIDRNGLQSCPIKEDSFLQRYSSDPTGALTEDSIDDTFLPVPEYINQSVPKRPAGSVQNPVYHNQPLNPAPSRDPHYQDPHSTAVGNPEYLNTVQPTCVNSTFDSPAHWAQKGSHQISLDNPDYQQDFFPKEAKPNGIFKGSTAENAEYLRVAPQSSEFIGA

SMILES | IC50 [1] [nM] | IC50 (EGFR wt) [nM] | IC50 [2] [nM]
Cn1cc(-c2cc(C(=O)/N=c3\[nH]c4cc(CN5CCOCC5)ccc4n3[C@H]3CC[C@@H](O)CC3)cc(F)n2)cn1 [I-135] | 0.8 | 225 | 2
O=C(/N=c1\[nH]c2ccccc2n1[C@H]1CC[C@@H](O)CC1)c1ccnc(-c2ccccc2F)c1 [I-141] | 2 | 312 | 2
COc1ccccc1-c1cc(C(=O)/N=c2\[nH]c3ccccc3n2[C@@H]2CC[C@H](O)[C@H](O)C2)ccn1 [I-144] | 6.9 | 110 | 3
Cn1cc(-c2cc(C(=O)/N=c3\[nH]c4cc(CN5CCOCC5)ccc4n3[C@H]3CC[C@@H](O)CC3)cc(C#N)n2)cn1 [I-145] | 1.7 | 397 | 3
Cn1cc(-c2cc(C(=O)/N=c3\[nH]c4ccccc4n3[C@H]3CC[C@@H](O)CC3)cc(Cl)n2)cn1 [I-146] | 2.8 | 1540 | 5
COc1ccccc1-c1cc(C(=O)/N=c2\[nH]c3cc(CN4CCOCC4)ccc3n2[C@H]2CCC[C@@H](O)C2)ccn1 [I-148] | 3.3 | 77.8 | 4
COc1ccccc1-c1cc(C(=O)/N=c2\[nH]c3ccccc3n2[C@H]2CC[C@H](O)[C@H](O)C2)ccn1 [I-149] | 8.5 | 148 | 4
O=C(/N=c1\[nH]c2ccccc2n1[C@H]1CC[C@@H](O)CC1)c1ccnc(-c2coc3cccnc23)c1 [I-156] | 13.3 | 3150 | 5
COc1ccc(F)cc1-c1cc(C(=O)/N=c2\[nH]c3ccccc3n2[C@H]2CC[C@@H](O)CC2)ccn1 [I-157] | 4.6 | 70.4 | 5
COc1ccccc1-c1cc(C(=O)/N=c2\[nH]c3cc(C4CCN(C(C)=O)C4)ccc3n2CC(C)(C)O)ccn1 (stereo not drawn) [I-158] | 1.5 | 56.3 | 6
Cc1cccc(-c2cc(C(=O)/N=c3\[nH]c4ccccc4n3[C@H]3CC[C@@H](O)CC3)ccn2)c1 [I-161] | 2.4 | 205 | 6
COc1c(C)cccc1-c1cc(C(=O)/N=c2\[nH]c3ccccc3n2[C@H]2CC[C@@H](O)CC2)ccn1 [I-162] | 14.2 | 1180 | 6
O=C(/N=c1\[nH]c2ccccc2n1[C@H]1CC[C@@H](O)CC1)c1ccnc(-c2ccccc2OC(F)F)c1 [I-163] | 10.4 | 110 | 7
COc1ccncc1-c1cc(C(=O)/N=c2\[nH]c3ccccc3n2[C@H]2CC[C@@H](O)CC2)cc(C#N)n1 [I-167] | 4.6 | 995 | 7
Cn1cc(-c2cc(C(=O)/N=c3\[nH]c4ccccc4n3[C@H]3COC[C@H](O)C3)ccn2)cn1 [I-168] | 5 | 1270 | 10
COc1cc(F)ccc1-c1cc(C(=O)/N=c2\[nH]c3ccccc3n2[C@H]2CC[C@@H](O)CC2)ccn1 [I-169] | 2.8 | 81.6 | 11
C#Cc1cc(C(=O)/N=c2\[nH]c3ccccc3n2[C@H]2CC[C@@H](O)CC2)cc(-c2cnn(C)c2)n1 [I-171] | 8.8 | 2970 | 8
COc1c(F)cccc1-c1cc(C(=O)/N=c2\[nH]c3ccccc3n2[C@H]2CC[C@@H](O)CC2)ccn1 [I-175] | 13.6 | 557 | 10
O=C(/N=c1\[nH]c2ccccc2n1[C@H]1CC[C@@H](O)CC1)c1ccnc(-c2ccncc2)c1 [I-176] | 4 | 293 | 11

SMILES | IC50 [1] [nM] | IC50 (EGFR wt) [nM] | IC50 [2] [nM]
O=C(/N=c1\[nH]c2ccccc2n1[C@H]1CC[C@@H](O)CC1)c1ccnc(-c2cccn3ncnc23)c1 [I-179] | 33.8 | 3600 | 12
O=C(/N=c1\[nH]c2ccccc2n1[C@H]1CC[C@@H](O)CC1)c1ccnc(-c2ccc(F)cc2F)c1 [I-180] | 4.8 | 302 | 12
COc1ccccc1-c1cc(C(=O)/N=c2\[nH]c3cc(CN4CCOCC4)ccc3n2[C@H]2CCC[C@H](O)C2)ccn1 [I-181] | 1.7 | 31 | 12
Cn1cc(-c2cc(C(=O)/N=c3\[nH]c4cc(CCCO)ccc4n3CC(C)(C)O)ccn2)cn1 [I-184] | 7.8 | 1520 | 19
O=C(/N=c1\[nH]c2ccccc2n1[C@H]1CC[C@@H](O)CC1)c1ccnc(-c2cccc(F)c2)c1 [I-185] | 35.6 | 3240 | 23
Cn1cc(-c2cc(C(=O)/N=c3\[nH]c4ccccc4n3[C@H]3COC[C@@H](O)C3)ccn2)cn1 [I-191] | 7.4 | 1660 | 44
COc1ccncc1-c1cc(C(=O)/N=c2\[nH]c3cc(CN4CCOCC4)ccc3n2[C@H]2CC[C@@H](O)CC2)cc(C#N)n1 [I-196] | 3 | 1400 | 5
Cc1cc(C(=O)/N=c2\[nH]c3cc(CN4CCOCC4)ccc3n2[C@H]2CC[C@@H](O)CC2)cc(-c2cnn(C)c2)n1 [I-197] | 2.7 | 5010 | 7
COc1ccccc1-c1cc(C(=O)/N=c2\[nH]c3ccccc3n2[C@@H]2CC[C@H](O)[C@@H](O)C2)ccn1 [I-198] | 7.7 | 77.1 | 18
Cn1cc(-c2cc(C(=O)/N=c3\[nH]c4cc(CC#N)ccc4n3CC(C)(C)O)ccn2)cn1 [I-199] | 6.8 | 1520 | 15
O=C(/N=c1\[nH]c2ccccc2n1[C@H]1CC[C@@H](O)CC1)c1ccnc(-c2cnn(C(F)F)c2)c1 [I-201] | 1.2 | 231 | 2
CC(=O)N1CCC(c2ccc3c(c2)[nH]/c(=N\C(=O)c2cc(C#N)nc(-c4cnn(C)c4)c2)n3[C@H]2CC[C@@H](O)CC2)CC1 [I-202] | 0.9 | 173 | 5
Cc1cc(C(=O)/N=c2\[nH]c3ccccc3n2[C@H]2CCC[C@H](O)C2)cc(-c2cnn(C)c2)n1 [I-204] | 26.2 | 9290 | 6
CC(=O)N1CCC(c2ccc3c(c2)[nH]/c(=N\C(=O)c2cc(C)nc(-c4cnn(C)c4)c2)n3[C@H]2CC[C@@H](O)CC2)CC1 [I-205] | 3.6 | 1480 | 8
Cc1cc(C(=O)/N=c2\[nH]c3ccccc3n2[C@@H]2C[C@H](O)C[C@H](O)C2)cc(-c2cnn(C)c2)n1 [I-206] | 17.7 | 12900 | 37
Cn1cc(-c2cc(C(=O)/N=c3\[nH]c4ccccc4n3[C@H]3C[C@H](O)C[C@H](O)C3)ccn2)cn1 [I-207] | 3 | 539 | 26
Cc1cc(C(=O)/N=c2\[nH]c3cc(CN4CCN(C)CC4)ccc3n2[C@H]2CCC[C@H](O)C2)cc(-c2cnn(C)c2)n1 [I-208] | 5.4 | 7470 | 44
Cc1cc(C(=O)/N=c2\[nH]c3cc(CN4CCOCC4)ccc3n2[C@H]2CCC[C@H](O)C2)cc(-c2cnn(C)c2)n1 [I-209] | 8.1 | 5800 | 14
Cn1cc(-c2cc(C(=O)/N=c3\[nH]c4ccccc4n3[C@H]3CCC[C@H](O)C3)cc(C#N)n2)cn1 [I-210] | 4.3 | 664 | 9
